# Key:
# [1] = system: IEC-6 enterocytes; experiment: Assessment of NFkB activation (nuclear:cytoplasmic ratio of p65) in IEC-6 enterocytes; format: cell-based; conditions: IEC-6 cells, LPS 50 μg/ml, CpG-DNA 1 μM, polymixin B 10 μg/ml, 1 hour
# Protocol: FIG. 21. Nuclear:cytoplasmic ratio of NFκB, indicating the extent of translocation of NFκB into the nucleus, in IEC-6 cells which were either untreated (control); treated with LPS; treated with LPS and CpG; treated with LPS, CpG and polymixin B; treated with CpG; or treated with polymixin B. The concentrations used were LPS at […] CpG-DNA at 1 μM, and polymixin B at 10 μg/ml.
# Assessment of NFkB activation. IEC-6 enterocytes were treated with LPS (50 μg/ml, Sigma-Aldrich, St. Louis, Mo.) and/or CpG-DNA (1 μM) either alone or in combination for 1 hour and immunostained with antibodies against the p65 subunit of NF-κB. Quantification of nuclear translocation was performed as adapted from Ding, et al. J Biol. Chem. 1998 Oct. 30; 273(44):28897-905. […] The average NF-κB p65 intensity of the cytoplasmic area was determined by subtracting the area and integrated intensity of the nuclear ROI from the nuclear+cytoplasmic ROI and dividing the cytoplasmic integrated intensity by the cytoplasmic area. The extent of p65 staining in the nucleus versus the cytoplasm (i.e. the nuclear to cytoplasmic ratio) was calculated for each cell by dividing the nuclear average NF-κB p65 intensity by the cytoplasmic average NF-κB p65 intensity. Nuclear to cytoplasmic ratio was calculated for more than 200 cells per treatment group for more than 4 separate experiments.
# [2] = system: experimental NEC in newborn mice; experiment: Murine model of necrotizing enterocolitis (formula gavage + hypoxia), CpG treatment; format: in vivo, mouse
# Protocol: FIG. 18A-D. Histology of intestines from mice that were (A) breast fed (control); (B) gavage fed+hypoxic to model necrotizing enterocolitis (NEC); (C) breast fed and treated with 500 μg/kg (approximately 10 μg/animal, intraperitoneally injected) CpG (control); (D) gavage fed+hypoxic to model NEC and treated with 500 μg/kg (approximately 10 μg/animal, intraperitoneally injected) CpG.
# (A) Control mice (injected with saline). (B) Mice injected with 5 mg/kg of LPS. (C) Mice injected with 5 mg/kg of LPS and 1 mg/kg of CpG. (D-G) Immunohistochemical staining of terminal ileum from newborn mice that were either breast fed (“control”) or induced to develop NEC (“NEC”). Sections were stained for caspase 3 as a marker of apoptosis and enterocyte loss; positive staining is indicated by a small arrowhead. (D) Control injected with saline. (E) NEC injected with saline. (F) Control injected with 1 mg/kg CpG-DNA daily for four days. (G) NEC injected with 1 mg/kg CpG-DNA daily for four days. (H) Bar graph summarizing results, showing percent apoptosis in terminal ileum as depicted in (D)-(G).
# FIG. 20A-I. Newborn mice were either breast fed (“control”) or were induced to develop NEC (“NEC”). (A) Gross micrograph of intestine of a control mouse. (B) Gross micrograph of intestine of a control mouse treated with 1 mg/kg CpG-DNA daily for four days. (C) Gross micrograph of intestine of a NEC mouse. (D) Gross micrograph of intestine of a NEC mouse treated with 1 mg/kg CpG-DNA daily for four days. (E) Micrograph of histological section of intestine of a control mouse. (F) Micrograph of histological section of intestine of a control mouse treated with CpG. (G) Micrograph of histological section of intestine of a NEC mouse. (H) Micrograph of histological section of intestine of a NEC mouse treated with CpG. (I) Summary bar graph of the above results.
# FIG. 16 presents a Western blot showing expression of TLR4 and TLR9 in control mice and mice modeling necrotizing enterocolitis (“NEC”). A substantial increase in the level of TLR4, and a decrease in TLR9, was observed. […]
# [3] = NEC mice, 1 mg/kg CpG-DNA daily for four days
substance,measurement,setting,value
5′-TCCATGACGTTCCTGACGTT-3′ [CpG-DNA],LPS-induced translocation of NFκB into the nucleus (nuclear:cytoplasmic ratio),[1],significantly inhibited translocation
same,NEC pathology (gross and histological),[2]; [3],substantial inhibition of the NEC pathology
same,apoptosis in terminal ileum (caspase 3),[2]; [3],substantially reduced apoptosis
same,severity of experimental NEC,"[2]; wild-type TLR4 mice, 500 μg/kg CpG intraperitoneally",limit the severity of experimental NEC

# From US8518903B2, “Use of toll-like receptor-9 agonists” (University of Pittsburgh—of the Commonwealth System of …, priority 2007, dated 2013)
